Reference: patent publication US20170107579A1, “E1 ENZYME MUTANTS AND USES THEREOF” (Millennium Pharmaceuticals, Inc., priority 2011, published 2017)

Experiments:
[1] = tested on: HCT-116 WT, HCT-116.1 A171T and HCT-116.4 C324Y cells; test: Drug efflux inhibitor co-incubation, ATPlite viability assay; assay type: cell-based
Method: Treatment of cells with efflux inhibitors. FIG. 8A. […] Co-incubation studies were performed with various inhibitors of drug efflux at their highest non toxic concentration.
Diypridamole (Sigma), MK571 (Tocris), GF918, K0143 (Tocris) and LY5979 were obtained from commercial sources indicated.

[2] = tested on: NEDD8-cullin levels in HCT-116 WT and A171T xenografts; test: Pharmacodynamic marker analysis in tumor xenografts; assay type: in vivo, rat; details: single dose of 150 mg/kg
From the text: (§1) The relative levels of NEDD8-cullin and pIxBa were estimated by quantitative immunoblot analysis (Li-cor Odyssey system) using Alexa680-labelled anti-IgG (Molecular Probes) as the secondary antibody. For the analysis of CDT1 and cleaved caspase-3 levels in tumor sections, formalin-fixed, paraffin-embedded tumour sections were stained with the relevant antibodies, amplified with HRP-labelled secondary antibodies and detected with the ChromoMap DAB Kit (Ventana Medical Systems). Slides were counterstained with haematoxylin. Images were captured using an Eclipse E800 microscope (Nikon Instruments) and Retiga EXi colour digital camera (QImaging) and processed using Metamorph software (Molecular Devices). CDT1 and cleaved caspase-3 are expressed as a function of the DAB signal area.
The digests were analyzed on a LC/MS/MS system as previously described (Brownell et al., 2010).

A573T UBA6 = molecular target: T1, A573T UBA6 (Homo sapiens, UniProt A0AVT1, A573T); test: UBA6 pyrophosphate exchange assay; assay type: biochemical; details: A573T UBA6 5 nM, 1 mM ATP, 4 μM ubiquitin
T1 construct: His6 (N); made in house; host or cells: Sf9 insect cells (baculovirus, single infection)
Method: (§2) ATP and PPi titrations were run under similar condition, except ubiquitin was fixed at 4 μM. […] ATP standard curve.
(§3) Reactions were initiated with addition of 4 μM ubiquitin.

A573D UBA6 = molecular target: T2, A573D UBA6 (Homo sapiens, UniProt A0AVT1, A573D); test: UBA6 pyrophosphate exchange assay; assay type: biochemical; details: A573D UBA6 5 nM, 1 mM ATP, 4 μM ubiquitin
T2 construct: His6 (N); made in house; host or cells: Sf9 insect cells (baculovirus, single infection)
Method: as §2, §3

wild-type UBA6 = molecular target: T3, wild-type UBA6 (Homo sapiens, UniProt A0AVT1); test: UBA6 pyrophosphate exchange assay; assay type: biochemical; details: wt UBA6 5 nM, 1 mM ATP, 4 μM ubiquitin, 60 minutes at 30° C.
T3 construct: His6 (N); made in house; host or cells: Sf9 insect cells (baculovirus, single infection)
Method: as §2, §3

THP-1 AML xenografts = test: Antitumor study, subcutaneous xenografts in CB-17 SCID mice; assay type: in vivo, mouse; details: THP-1 xenografts, 90 mg/kg BID, biweekly
Method: (§4) Female NCr Nude rats (Taconic Farms) aged 6-8 weeks were inoculated with 10×10^6 HCT-116 cells subcutaneously in the right flank. Tumor growth was measured using digital vernier calipers. […] Rats received one dose per day biweekly for 2 weeks (days 1, 4, 8, and 11) of a 21-day therapy cycle. After three cycles of treatment refractory tumors were collected. Female CB-17 SCID mice (Charles River Laboratories) aged 6-8 weeks were inoculated with 2×10^6 THP-1 or OCI-Ly10 cells with Matrigel™ support (1:1, v/v). […] Mice received two doses per day bi-weekly (days 1, 4, 8, 11, 15, 18, 22 . . . ) until tumors reached approximately 500-800 mm^3. Tumors were then collected and one 40-50 mg piece of tumor was subcutaneously implanted using a 13 gauge trocar needle into 6 to 8 naïve animals for further study. In addition tumor DNA was extracted for mutational analysis as described in supplementary information.

[3] = tested on: OCI-Ly10 DLBCL xenografts; test: as above; assay type: in vivo, mouse; details: 90 mg/kg BID bi-weekly
Method: as §4

[4] = tested on: NEDD8-cullin levels in A171T THP-1 xenografts; test: Pharmacodynamic marker analysis in tumor xenografts; assay type: in vivo, mouse; details: single dose 90 mg/kg
From the text: as §1

A171T HCT-116 xenografts = test: Antitumor study, re-transplanted resistant xenograft in nude rats; assay type: in vivo, rat; details: A171T HCT-116 xenograft, one cycle of 150 mg/kg (days 1, 4, 8, 11)
Method: as §4
The A171T NAEβ mutation was still present in this resistant xenograft model as confirmed by both Sanger and Sequenom methodologies.

[5] = Antitumor study, subcutaneous xenografts in nude rats; assay type: in vivo; details: female, NCr Nude, rat, in vivo, sc; immunocompromised rats, subcutaneously, days 1, 4, 8 and 11 of a 21 day cycle; read-out: maximum tolerated dose
Method: as §4

HCT-116 xenografts (WT) = test: as above; assay type: in vivo
Method: as §4

[6] = tested on: NEDD8 pathway (NEDD8-cullin, NEDD8-NAEβ, NEDD8-Ubc12, CDT1, NRF2); test: Western blot pathway analysis of treated cells; assay type: cell-based
Method: Whole cell extracts were prepared and immunoblotting assays performed as previously described (Soucy, 2009) with primary antibodies as follows: CDT1, NRF2, NEDD8, NAEβ, UBC12 and 4924-NEDD8-ADS (MIL22) (Millennium); UBC10 (Boston Biochem); K48 (Millipore); NAE1 (sigma) and tubulin (Santa Cruz). Secondary Alexa-680-labelled antibodies to rabbit/mouse IgG (Molecular Probes) were used as appropriate and blots were imaged using the Li-Cor Odyssey Infared Imaging system.
The reduced effect on NAE inhibition was confirmed by a reduced accumulation of two CRL substrates, Nrf2 and Cdt1.

[7] = tested on: E204G OCI-Ly10 xenografts; test: Antitumor study, re-implanted resistant xenograft in SCID mice; assay type: in vivo, mouse; details: re-implanted E204G OCI-Ly10 tumor, 90 mg/kg BID
Method: as §4

[8] = tested on: HCT-116 WT, A171T and G201V cells; test: Cell cycle analysis (propidium iodide, flow cytometry); assay type: cell-based; details: HCT-116 resistant A171T and G201V clones, 1 μM, 24 hours
Method: Cell cycle analysis. FIG. 11A. HCT-116 WT, FIG. 11B. HCT-116.1 A171T and FIG. 11C.
Logarithmically growing cells were incubated with either MLN4924 or DMSO for the times indicated. Collected cells were fixed in 70% ethanol and stored overnight at 4° C. Fixed cells were centrifuged to remove ethanol, and the pellets were resuspended in propidium iodide and RNaseA in PBS for 1 h on ice protected from light. Cell-cycle distributions were determined using flow cytometry (FACS Calibur, Becton Dickinson) and analysed using Winlist software (Verity).

[9] = tested on: MLN4924 resistant Calu-6 clone; test: Cell viability assay, 96 hours ATPlite, resistant clone; assay type: cell-based; details: Homo sapiens; one Calu-6 resistant clone
Method: (§5) FIG. 6A. Calu-6 and FIG. 6B.
(§6) Cell line cultures were maintained using appropriate cell culture media as recommended by ATCC and as previously reported (Soucy et al., 2009, Milhollen et al., 2010). […] Cell viability assays completed using 96 hours ATPlite assay (PerkinElmer) as previously reported (Soucy et al., 2009).

[10] = tested on: MLN4924 resistant NCI-H460 clones; test: Cell viability assay, 96 hours ATPlite, resistant clones; assay type: cell-based; details: Homo sapiens; two NCI-H460 resistant clones
Method: as §5, §6

A171T THP-1 xenografts = test: Antitumor study, re-established resistant xenograft in SCID mice; assay type: in vivo, mouse; details: A171T THP-1 xenograft, 90 mg/kg BID bi-weekly
Method: as §4
The subcutaneous model was utilized to facilitate harvesting tumors for subsequent analysis. […] Three THP-1 xenografts contained a heterozygous mutation in NAEB at A171T, one contained a heterozygous mutation in at N209D and the remaining two were wild type for NAEB and so may be refractory through an alternate mechanism (FIG. 14A and Table 6).

[11] = tested on: MLN4924 resistant HCT-116 cell clones; test: Cell viability assay, 96 hours ATPlite, resistant clones; assay type: cell-based; details: for sensitivity of MLN4924 resistant clones to other chemotherapies: HCT-116 resistant clones, 96 hours ATPlite
Method: HCT-116 cells and resistant clones were treated with DMSO or various concentrations of FIG. 7A. bortezomib, FIG. 7B. doxorubicin or FIG. 7C. SN-38 for 96 hours and cell viability was assessed with ATPlite assay.
as §6

Calu-6 cells = test: Cell viability assay, 96 hours ATPlite; assay type: cell-based; details: Homo sapiens, Calu-6 parental cells
Method: as §6

NCI-H460 cells = test: Cell viability assay, 96 hours ATPlite; assay type: cell-based; details: Homo sapiens, NCI-H460 parental cells
Method: as §6

HCT-116 cells = test: Cell viability assay, 96 hours ATPlite; assay type: cell-based; details: Homo sapiens, HCT-116 parental cells
Method: as §6

T1 sequence (A0AVT1 whole entry A573T): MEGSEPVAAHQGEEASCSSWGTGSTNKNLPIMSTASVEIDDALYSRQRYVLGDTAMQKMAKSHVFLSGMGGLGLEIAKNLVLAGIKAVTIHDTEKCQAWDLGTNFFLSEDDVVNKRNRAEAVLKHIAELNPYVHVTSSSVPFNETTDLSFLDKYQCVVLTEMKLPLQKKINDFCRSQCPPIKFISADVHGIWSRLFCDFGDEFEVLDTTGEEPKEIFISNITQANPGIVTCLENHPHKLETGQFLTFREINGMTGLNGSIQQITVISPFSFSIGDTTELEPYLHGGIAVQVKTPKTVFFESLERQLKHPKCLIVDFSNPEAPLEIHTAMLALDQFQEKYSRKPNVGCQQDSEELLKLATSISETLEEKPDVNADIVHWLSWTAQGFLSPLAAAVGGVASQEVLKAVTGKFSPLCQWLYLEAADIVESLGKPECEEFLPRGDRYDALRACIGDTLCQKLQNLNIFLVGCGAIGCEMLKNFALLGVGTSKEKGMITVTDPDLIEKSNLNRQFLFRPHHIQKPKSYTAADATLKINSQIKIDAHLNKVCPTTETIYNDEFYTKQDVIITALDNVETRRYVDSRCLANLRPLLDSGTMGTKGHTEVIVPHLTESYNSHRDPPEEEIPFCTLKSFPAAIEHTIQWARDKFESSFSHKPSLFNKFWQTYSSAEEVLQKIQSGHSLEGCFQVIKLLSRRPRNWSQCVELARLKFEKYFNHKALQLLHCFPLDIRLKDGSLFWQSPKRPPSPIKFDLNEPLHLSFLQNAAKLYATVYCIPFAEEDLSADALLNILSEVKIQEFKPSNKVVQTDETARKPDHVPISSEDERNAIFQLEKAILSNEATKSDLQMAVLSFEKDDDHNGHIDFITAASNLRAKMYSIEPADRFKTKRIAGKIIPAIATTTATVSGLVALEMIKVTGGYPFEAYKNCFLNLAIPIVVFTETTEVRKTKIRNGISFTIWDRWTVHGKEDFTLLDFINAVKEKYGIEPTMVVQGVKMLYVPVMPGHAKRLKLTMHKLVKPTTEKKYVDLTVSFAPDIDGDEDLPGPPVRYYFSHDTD
T2 sequence (A0AVT1 whole entry A573D): as the sequence (A0AVT1 whole entry A573T) above, with T573D counted along it
T3 sequence (A0AVT1 whole entry): as the sequence (A0AVT1 whole entry A573T) above, with T573A counted along it

## CN(C)C(=O)CCSC(SCCC(=O)O)c1cccc(/C=C/c2ccc3ccc(Cl)cc3n2)c1 (stereo not shown) [MK519]
[1]; co-treatment with MLN4924, 96 hours
  sensitization of cells to MLN4924 by Pgp, BCRP and MRP2 inhibitors: did not sensitize

## NS(=O)(=O)OC[C@@H]1C[C@@H](n2ccc3c(N[C@H]4CCc5ccccc54)ncnc32)C[C@@H]1O [MLN4924, ((1S,2S,4R)-4-{4-[(1S)-2,3-dihydro-1H-inden-1-ylamino]-7H-pyrrolo[2,3-d]pyrimidin-7-yl}-2-hydroxycyclopentyl)methyl sulphamate]
[2]; A171T HCT-116 resistant model
  time of maximal inhibition of NEDD8-cullin levels post-dose: 8 h
[2]; WT HCT-116 xenografts
  time of maximal inhibition of NEDD8-cullin levels post dose: 1 h
A573T UBA6
  IC50: > 100 µM
A573D UBA6
  IC50: > 100 µM
wild-type UBA6
  IC50: 6.2 ± 0.8 µM
THP-1 AML xenografts
  antitumor effect: uniform tumor regressions
[3]
  antitumor effect: tumor regressions
[4]
  inhibition of NEDD8-cullin levels: minimal inhibition
A171T HCT-116 xenografts
  tumor growth inhibition: 38%
[5]
  MTD: 150 mg/kg
HCT-116 xenografts (WT); WT HCT-116 xenografts, after first cycle, 150 mg/kg s.c.
  antitumor effect: tumor regressions
HCT-116 xenografts (WT); wild type HCT-116 xenografts, one cycle of 150 mg/kg (days 1, 4, 8, 11)
  tumor growth inhibition: 94%
[6]; HCT-116 A171T and G201V clones compared to WT cells
  inhibition of NEDD8 conjugation to NAEB, UBC12 and the cullin proteins: reduced effect of inhibition
[6]; NCI-H460 A171D and Calu-6 N209K clones
  effect on the neddylation pathway and CRL substrate accumulation: reduced potency
[1]; efflux inhibitors at highest non toxic concentration, 96 hours
  MLN4924 activity on co-incubation with drug efflux inhibitors: unaffected
[7]
  antitumor effect: resistant
[8]
  cell cycle distribution: not significantly altered
[9]
  EC50: > 10 µM
[10]
  EC50: > 10 µM
A171T THP-1 xenografts
  antitumor effect: resistant
[11]; Homo sapiens, four HCT-116 resistant clones
  EC50: > 10 µM
Calu-6 cells
  EC50: 0.08 µM
NCI-H460 cells
  EC50: 1.07 µM
HCT-116 cells
  EC50: 0.046 µM

## CCc1c2c(nc3ccc(O)cc13)-c1cc3c(c(=O)n1C2)COC(=O)[C@]3(O)CC [SN-38]
[11]
  sensitivity of MLN4924 resistant clones to other chemotherapies: remained sensitive

## CC(C)C[C@H](NC(=O)[C@H](Cc1ccccc1)NC(=O)c1cnccn1)B(O)O [bortezomib]
[11]
  sensitivity of MLN4924 resistant clones to other chemotherapies: remained sensitive

## COc1cccc2c1C(=O)c1c(O)c3c(c(O)c1C2=O)C[C@@](O)(C(=O)CO)C[C@@H]3O[C@H]1C[C@H](N)[C@H](O)[C@H](C)O1 [doxorubicin]
[11]
  sensitivity of MLN4924 resistant clones to other chemotherapies: remained sensitive
